Publication PMC11062906 (Nature, 2024)
Where “and” joins values, the source holds several entries; their conditions need not be identical. Identical values can stand only once. Entries after “also recorded” stand apart in the source; their conditions may differ.

Tests used:
BmGr9 Q443E_Q445R = BmGr9 Q443E_Q445R (Bombyx mori, UniProt B3GTD7, Q443E/Q445R); experiment: GCaMP calcium flux assay, BmGr9 Q443E_Q445R; type: cell-based
BmGr9 W354F = experiment: GCaMP calcium flux assay, BmGr9 W354F; type: cell-based, Bombyx mori
BmGr9 F333L = experiment: GCaMP calcium flux assay, BmGr9 F333L; type: cell-based, Bombyx mori
BmGr9 H358Q = experiment: GCaMP calcium flux assay, BmGr9 H358Q; type: cell-based, Bombyx mori
BmGr9 Y190F = BmGr9 Y190F (Bombyx mori, UniProt B3GTD7, Y190F); experiment: GCaMP calcium flux assay, BmGr9 Y190F; type: cell-based; conditions: 95% CI in parentheses
Sequence of BmGr9 Y190F (B3GTD7 entry or part of it Y190F): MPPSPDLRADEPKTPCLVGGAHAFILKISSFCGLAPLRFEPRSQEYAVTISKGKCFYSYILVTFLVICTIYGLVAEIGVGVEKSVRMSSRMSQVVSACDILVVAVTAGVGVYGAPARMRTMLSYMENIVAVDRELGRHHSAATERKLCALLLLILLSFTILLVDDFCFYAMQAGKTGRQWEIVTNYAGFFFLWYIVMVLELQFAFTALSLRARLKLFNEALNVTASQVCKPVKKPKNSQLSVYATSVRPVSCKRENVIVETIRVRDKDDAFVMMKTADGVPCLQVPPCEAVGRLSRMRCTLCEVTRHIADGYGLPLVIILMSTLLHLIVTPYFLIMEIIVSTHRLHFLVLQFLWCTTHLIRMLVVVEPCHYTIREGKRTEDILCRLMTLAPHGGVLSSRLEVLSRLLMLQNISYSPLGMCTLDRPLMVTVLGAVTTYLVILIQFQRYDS

BmGr9 D165A = experiment: GCaMP calcium flux assay, BmGr9 D165A; type: cell-based, Bombyx mori
BmGr9 D99A = experiment: GCaMP calcium flux assay, BmGr9 D99A; type: cell-based, Bombyx mori
BmGr9 D165E = experiment: GCaMP calcium flux assay, BmGr9 D165E; type: cell-based, Bombyx mori
BmGr9 D165N = experiment: GCaMP calcium flux assay, BmGr9 D165N; type: cell-based, Bombyx mori
BmGr9 = BmGr9 (Bombyx mori, UniProt B3GTD7); experiment: Cell-based GCaMP calcium flux assay, wild-type BmGr9
Sequence of BmGr9 (B3GTD7 entry or part of it): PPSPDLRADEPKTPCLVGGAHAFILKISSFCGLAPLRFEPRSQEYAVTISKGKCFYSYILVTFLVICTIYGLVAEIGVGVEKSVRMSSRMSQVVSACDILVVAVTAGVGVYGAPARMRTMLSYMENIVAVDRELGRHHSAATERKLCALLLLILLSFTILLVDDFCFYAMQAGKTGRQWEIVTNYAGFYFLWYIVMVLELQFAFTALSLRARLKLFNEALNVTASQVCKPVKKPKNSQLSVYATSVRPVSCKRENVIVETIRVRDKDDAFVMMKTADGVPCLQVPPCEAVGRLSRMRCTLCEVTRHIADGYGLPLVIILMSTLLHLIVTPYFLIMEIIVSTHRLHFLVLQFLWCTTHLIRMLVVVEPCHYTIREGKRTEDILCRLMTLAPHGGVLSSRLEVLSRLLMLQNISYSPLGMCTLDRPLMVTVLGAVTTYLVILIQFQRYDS

BmGr9 Q443E_Q445K = BmGr9 Q443E_Q445K (Bombyx mori, UniProt B3GTD7, Q443E/Q445K); experiment: GCaMP calcium flux assay, BmGr9 Q443E_Q445K; type: cell-based
Sequence of BmGr9 Q443E_Q445K (B3GTD7 entry or part of it Q443E/Q445K): as the sequence (B3GTD7 entry or part of it Y190F) above, with F190Y, Q443E, Q445K counted along it

BmGr9 Q445K = experiment: GCaMP calcium flux assay, BmGr9 Q445K; type: cell-based, Bombyx mori
BmGr9 I440A = experiment: GCaMP calcium flux assay, BmGr9 I440A; type: cell-based, Bombyx mori
BmGr9 T330S = BmGr9 T330S (Bombyx mori, UniProt B3GTD7, T330S); experiment: GCaMP calcium flux assay, BmGr9 T330S; type: cell-based
Sequence of BmGr9 T330S (B3GTD7 entry or part of it T330S): as the sequence (B3GTD7 entry or part of it Y190F) above, with F190Y, T330S counted along it

BmGr9 Q351E = experiment: GCaMP calcium flux assay, BmGr9 Q351E; type: cell-based, Bombyx mori
BmGr9 Q443D_Q445K = BmGr9 Q443D_Q445K (Bombyx mori, UniProt B3GTD7, Q443D/Q445K); experiment: GCaMP calcium flux assay, BmGr9 Q443D_Q445K; type: cell-based
Sequence of BmGr9 Q443D_Q445K (B3GTD7 entry or part of it Q443D/Q445K): as the sequence (B3GTD7 entry or part of it Y190F) above, with F190Y, Q443D, Q445K counted along it

BmGr9 F189Y = BmGr9 F189Y (Bombyx mori, UniProt B3GTD7, F189Y); experiment: GCaMP calcium flux assay, BmGr9 F189Y; type: cell-based
Sequence of BmGr9 F189Y (B3GTD7 entry or part of it F189Y): as the sequence (B3GTD7 entry or part of it Y190F) above, with F189Y, F190Y counted along it

BmGr9 Q443A = experiment: GCaMP calcium flux assay, BmGr9 Q443A; type: cell-based, Bombyx mori
BmGr9 T330A = experiment: GCaMP calcium flux assay, BmGr9 T330A; type: cell-based, Bombyx mori
BmGr9 Q443E = BmGr9 Q443E (Bombyx mori, UniProt B3GTD7, Q443E); experiment: GCaMP calcium flux assay, BmGr9 Q443E; type: cell-based
Sequence of BmGr9 Q443E (B3GTD7 entry or part of it Q443E): as the sequence (B3GTD7 entry or part of it Y190F) above, with F190Y, Q443E counted along it

BmGr9 Q445A = BmGr9 Q445A (Bombyx mori, UniProt B3GTD7, Q445A); experiment: GCaMP calcium flux assay, BmGr9 Q445A; type: cell-based
Sequence of BmGr9 Q445A (B3GTD7 entry or part of it Q445A): as the sequence (B3GTD7 entry or part of it Y190F) above, with F190Y, Q445A counted along it

BmGr9 Q445R = experiment: GCaMP calcium flux assay, BmGr9 Q445R; type: cell-based, Bombyx mori
BmGr9 F333A = experiment: GCaMP calcium flux assay, BmGr9 F333A; type: cell-based, Bombyx mori
BmGr9 Q445E = BmGr9 Q445E (Bombyx mori, UniProt B3GTD7, Q445E); experiment: GCaMP calcium flux assay, BmGr9 Q445E; type: cell-based
Sequence of BmGr9 Q445E (B3GTD7 entry or part of it Q445E): as the sequence (B3GTD7 entry or part of it Y190F) above, with F190Y, Q445E counted along it

BmGr9 R86A = experiment: GCaMP calcium flux assay, BmGr9 R86A; type: cell-based, Bombyx mori
BmGr9 Q443D_Q445R = BmGr9 Q443D_Q445R (Bombyx mori, UniProt B3GTD7, Q443D/Q445R); experiment: GCaMP calcium flux assay, BmGr9 Q443D_Q445R; type: cell-based; conditions: 95% CI in parentheses
Sequence of BmGr9 Q443D_Q445R (B3GTD7 entry or part of it Q443D/Q445R): as the sequence (B3GTD7 entry or part of it Y190F) above, with F190Y, Q443D, Q445R counted along it

BmGr9 W193F = experiment: GCaMP calcium flux assay, BmGr9 W193F; type: cell-based, Bombyx mori
BmGr9 R86K = BmGr9 R86K (Bombyx mori, UniProt B3GTD7, R86K); experiment: GCaMP calcium flux assay, BmGr9 R86K; type: cell-based
Sequence of BmGr9 R86K (B3GTD7 entry or part of it R86K): as the sequence (B3GTD7 entry or part of it Y190F) above, with R86K, F190Y counted along it

BmGr9 Q443E_Q445A = BmGr9 Q443E_Q445A (Bombyx mori, UniProt B3GTD7, Q443E/Q445A); experiment: GCaMP calcium flux assay, BmGr9 Q443E_Q445A; type: cell-based
Sequence of BmGr9 Q443E_Q445A (B3GTD7 entry or part of it Q443E/Q445A): as the sequence (B3GTD7 entry or part of it Y190F) above, with F190Y, Q443E, Q445A counted along it

BmGr9 Q443D = BmGr9 Q443D (Bombyx mori, UniProt B3GTD7, Q443D); experiment: GCaMP calcium flux assay, BmGr9 Q443D; type: cell-based
Sequence of BmGr9 Q443D (B3GTD7 entry or part of it Q443D): as the sequence (B3GTD7 entry or part of it Y190F) above, with F190Y, Q443D counted along it

BmGr9 Y190A = experiment: GCaMP calcium flux assay, BmGr9 Y190A; type: cell-based, Bombyx mori
BmGr9 Q351A = BmGr9 Q351A (Bombyx mori, UniProt B3GTD7, Q351A); experiment: GCaMP calcium flux assay, BmGr9 Q351A; type: cell-based
Sequence of BmGr9 Q351A (B3GTD7 entry or part of it Q351A): as the sequence (B3GTD7 entry or part of it Y190F) above, with F190Y, Q351A counted along it

BmGr9 Y332Q = experiment: GCaMP calcium flux assay, BmGr9 Y332Q; type: cell-based, Bombyx mori
BmGr9 F444A = experiment: GCaMP calcium flux assay, BmGr9 F444A; type: cell-based, Bombyx mori
BmGr9 Q443N = experiment: GCaMP calcium flux assay, BmGr9 Q443N; type: cell-based, Bombyx mori
[1] = tested on: HEK293 cells transfected with GCaMP only; experiment: Cell-based GCaMP calcium flux assay, GCaMP-only control cells
BmGr9 T330V = BmGr9 T330V (Bombyx mori, UniProt B3GTD7, T330V); experiment: GCaMP calcium flux assay, BmGr9 T330V; type: cell-based
Sequence of BmGr9 T330V (B3GTD7 entry or part of it T330V): as the sequence (B3GTD7 entry or part of it Y190F) above, with F190Y, T330V counted along it

Sequence of BmGr9 Q443E_Q445R (B3GTD7 entry or part of it Q443E/Q445R): as the sequence (B3GTD7 entry or part of it Y190F) above, with F190Y, Q443E, Q445R counted along it

SMILES: O=C(CO)[C@@H](O)[C@H](O)[C@H](O)CO [D-fructose]
- EC50 (BmGr9 Q443E_Q445R): 4.07 mM
- Hill Slope (BmGr9 Q443E_Q445R; Q443E_Q445R, 95% CI in parentheses): 2.02 (1.27 to 3.33)
- activation by D-fructose (Fmax, Hill slope, EC50 fit) (BmGr9 W354F): no activity
- activation by D-fructose (Fmax, Hill slope, EC50 fit) (BmGr9 F333L): no activity
- F max (BmGr9 H358Q): ~0.14
- Hill Slope (BmGr9 H358Q): ~1.43
- Hill Slope (BmGr9 Y190F): 0.98 (0.56 to 2.07)
- activation by D-fructose (Fmax, Hill slope, EC50 fit) (BmGr9 D165A): no activity
- activation by D-fructose (Fmax, Hill slope, EC50 fit) (BmGr9 D99A): no activity
- F max (BmGr9 D165E): ~0.12
- activation by D-fructose (printed in Hill Slope column) (BmGr9 D165E): no activity
- F max (BmGr9 D165N): ~0.10
- activation by D-fructose (printed in Hill Slope column) (BmGr9 D165N): no activity
- Activation of BmGr9 (change in fluorescence) by sweet compound (BmGr9; 100 mM sweet compound, HEK293 cells with BmGr9 plus GCaMP vs GCaMP only): elicited a strong response; also recorded: significantly different activity
- EC50 (BmGr9; EC50, WT BmGr9, 95% CI in parentheses): 8.71 mM
- Hill coefficient (BmGr9; Fig. 1b dose-response, n = 8, 95% CI in parentheses): 2.3 (1.3–4.6)
- Hill Slope (BmGr9; WT BmGr9, 95% CI in parentheses): 1.94 (1.48 to 2.58)
- EC50 (BmGr9; half-maximal activation concentration (EC50), Fig. 1b dose-response, HEK293 cells with BmGr9 and GCaMP6s, n = 8, 95% CI in parentheses): 9 mM and 8.2 mM
- EC50 (BmGr9 Q443E_Q445K): 5.1 mM
- Hill Slope (BmGr9 Q443E_Q445K; Q443E_Q445K, 95% CI in parentheses): 2.28 (1.51 to 3.62)
- activation by D-fructose (Fmax, Hill slope, EC50 fit) (BmGr9 Q445K): no activity
- activation by D-fructose (Fmax, Hill slope, EC50 fit) (BmGr9 I440A): no activity
- EC50 (BmGr9 T330S): ~100 mM
- Hill Slope (BmGr9 T330S; T330S): ~3.03
- activation by D-fructose (Fmax, Hill slope, EC50 fit) (BmGr9 Q351E): no activity
- EC50 (BmGr9 Q443D_Q445K): ~18 mM
- Hill Slope (BmGr9 Q443D_Q445K; Q443D_Q445K, 95% CI in parentheses): 1.18 (0.24 to 2.87)
- EC50 (BmGr9 F189Y): ~100 µM
- Hill Slope (BmGr9 F189Y; F189Y, 95% CI in parentheses): 1.05 (0.44 to 2.15)
- activation by D-fructose (Fmax, Hill slope, EC50 fit) (BmGr9 Q443A): no activity
- activation by D-fructose (Fmax, Hill slope, EC50 fit) (BmGr9 T330A): no activity
- EC50 (BmGr9 Q443E): 1.32 mM
- apparent affinity relative to wild-type (BmGr9 Q443E; Gln443 to Glu): increased apparent affinity
- Hill Slope (BmGr9 Q443E; Q443E): ~2.57
- Fluorescence change relative to wild-type BmGr9 (BmGr9 Q443E; Q443E, 100 mM D-fructose): more active than wild-type BmGr9
- EC50 (BmGr9 Q445A): 2.01 mM
- Hill Slope (BmGr9 Q445A; Q445A): ~3.78
- Fluorescence change relative to wild-type BmGr9 (BmGr9 Q445A; Q445A, 100 mM D-fructose): more active than wild-type BmGr9
- activation by D-fructose (Fmax, Hill slope, EC50 fit) (BmGr9 Q445R): no activity
- activation by D-fructose (Fmax, Hill slope, EC50 fit) (BmGr9 F333A): no activity
- EC50 (BmGr9 Q445E): 15.3 mM
- Hill Slope (BmGr9 Q445E; Q445E, 95% CI in parentheses): 1.56 (0.68 to 3.75)
- activation by D-fructose (Fmax, Hill slope, EC50 fit) (BmGr9 R86A): no activity
- Hill Slope (BmGr9 Q443D_Q445R): 0.31 (0.13 to 1.13)
- activation by D-fructose (Fmax, Hill slope, EC50 fit) (BmGr9 W193F): no activity
- EC50 (BmGr9 R86K): 10.4 mM
- Hill Slope (BmGr9 R86K; R86K): ~2.45
- EC50 (BmGr9 Q443E_Q445A): 1.53 mM
- Hill Slope (BmGr9 Q443E_Q445A; Q443E_Q445A, 95% CI in parentheses): 1.58 (0.69 to 6.42)
- EC50 (BmGr9 Q443D): 10 mM
- Hill Slope (BmGr9 Q443D; Q443D, 95% CI in parentheses): 1.52 (0.94 to 2.57)
- activation by D-fructose (Fmax, Hill slope, EC50 fit) (BmGr9 Y190A): no activity
- EC50 (BmGr9 Q351A): 3.9 mM
- Hill Slope (BmGr9 Q351A; Q351A, 95% CI in parentheses): 1.89 (0.60 to 5.26)
- activation by D-fructose (Fmax, Hill slope, EC50 fit) (BmGr9 Y332Q): no activity
- activation by D-fructose (Fmax, Hill slope, EC50 fit) (BmGr9 F444A): no activity
- activation by D-fructose (Fmax, Hill slope, EC50 fit) (BmGr9 Q443N): no activity
- Hill Slope [1]: ~2.37
- F max ([1]; ~ = CI not determined): ~0.20
- EC50 (BmGr9 T330V): ~98 mM
- Hill Slope (BmGr9 T330V; T330V): ~6.22
